Assay results from patent publication US10828306B2, “Methotrexate for proliferative vitreoretinopathy” (Massachusetts Eye and Ear Infirmary, priority 2014, dated 2020).
“And” between values parts separate entries of the source, which are not always exact repeats. Equal values may be shown once. “Also recorded” adds a separate entry of the source.

Tests used:
[1] = tested on: patients with retinal detachment at high risk for proliferative vitreoretinopathy (PVR); assay: Pilot study of multiple intravitreal methotrexate injections after PPV in eyes at high risk for PVR; assay type: in vivo, human; parameters: IOP at last follow up / Final IOP: unit not given here
From the text: We hypothesized that the administration of multiple, intravitreal methotrexate injections into eyes with high-risk features for post-operative proliferative vitreoretinopathy (PVR) development will have improved visual outcomes, higher anatomic final reattachment rates, decreased reoperation rates, and decreased occurrence of PVR at 4 months postoperatively.
We have performed a small pilot study in 10 patients with retinal detachment whom had high-risk clinical factors for developing PVR.
Patients 18 years to 89 years old of both genders were eligible for this study if they required pars plana vitrectomy (PPV) for rhegmatagenous retinal detachment secondary to trauma, PPV for preexisting proliferative vitreoretinopathy grade C or higher, or if they had retinal detachments requiring PPV for other indications associated with high risk condition for PVR development, i.e.: giant retinal tears (Giant retinal tears are defined as tears involving 90° or more of the circumference of the globe), retinal breaks larger than 3 disc areas, long-standing retinal detachments, detachments associated with hemorrhage.
The PPV was performed under local or general anesthesia using three, 23 or 20 gauge sclerotomy ports. Any present epiretinal membranes were dissected using a membrane pick and/or forceps. Intraoperative tissue staining, perfluorocarbons, cryopexy, endolaser, scleral buckling, and lensectomy were performed as needed. Either silicone oil or gas was used as the tamponading agent.
Routine post-operative visits, which involve a dilated funduscopic examination, occurred on post-operative day 1, 7, month 1, month 2, and month 3.
In addition to receiving the above-described standard of care, patients received multiple intravitreal methotrexate injections during their post-operative period. The first injection was administered intraoperatively and subsequently was injected on post-op week 1,2,3,4,5,6,7,8 and on post-op month 3, for a total of 10 injections. Intravitreal methotrexate injections were performed aseptically after the topical application of anaesthesia and 5% povidone iodine to the conjunctival sac. Each patient received an intravitreal injection of 400 mcg/0.1 ml methotrexate, 3.0 to 3.5 mm posterior to the limbus, depending on lens status, with a 30-gauge needle.
After injection, patients were monitored for adverse events, including a full-dilated funduscopic examination.

[2] = tested on: patients, eyes with a wide variety of conditions including PVR; conditions: intravitreal, varying doses, cited from earlier work
[3] = tested on: human proliferative vitreoretinopathy (PVR) cells; assay: Growth of human PVR cells in culture; assay type: cell-based; conditions: for Growth of PVR cells versus control: methotrexate 400, 200, 100 (micrograms, μM), 30,000 cells per well
Description: The cells were treated with 100 μM, 200 μM, or 400 μM Methotrexate (MTX) as indicated, and the images were taken after 72 hours (2A), 1 week (2B) or 2 weeks (2C).
We hypothesized that methotrexate would inhibit human proliferative vitreoretinopathy (PVR) cells in culture. PVR membranectomy was performed in patients undergoing retinal detachment repair secondary to PVR. Using cellular separation techniques, cellular constituents of the PVR membranes were separated from the extracellular matrix membranes. 30,000 cells per well were placed into a standard 12 welled plate. All 12 wells received endothelial cell growth medium with supplemental growth factors. Four arms were designated consisting of three wells each. The first arm served as a control receiving the standard growth medium but no other intervention. The remaining wells were designated as treatment arms. The second arm of three wells served as the first treatment arm and exposed the cells to 400 micrograms of methotrexate. The third and fourth arms of three wells each exposed the cultured cells to 200 and 100 micrograms, respectively, of methotrexate.

[4] = one patient (studyid), follow up 4 to 39 months
[5] = one patient (studyid), intravitreal methotrexate 400 mcg/0.1 ml

SMILES: CN(Cc1cnc2nc(N)nc(N)c2n1)c1ccc(C(=O)N[C@@H](CCC(=O)O)C(=O)O)cc1 [methotrexate, N-[4-[[(2,4-diamino-6-pteridinyl)methyl]methylamino]benzoyl]-L-glutamic acid]
- Other subjects with reaccumulation of fluid under the retina requiring re-operation, no membranes ([1]; 10 patients): Two
- Development of PVR while receiving methotrexate ([1]; 10 patients, three-month treatment protocol): no subjects developed PVR
- Subjects with a degree of conjunctival hyperemia ([1]; 10 patients, consistent with the use of silicone oil): All subjects
- Median post-operative visual acuity ([1]; 10 patients, median pre-operative visual acuity Hand Motions at 2 feet): 20/200
- Visual acuity and intraocular pressure at last follow up visit compared with post-operative month 4 ([1]; all patients): similar
- Significant adverse events ([1]; follow up 4 to 39 months, median 25 months): no significant adverse events were observed
- Adverse events observed: Conjunctival hyperemia ([1]; one patient (studyid)): 4 (2×) and 7 (3×) and 5 (3×) and 6 (2×)
- Adverse events observed: Elevated intraocular pressure ([1]; one patient (studyid)): 0 (9×) and 1
- Adverse events observed: NLP ([1]; one patient (studyid)): 0 (9×) and 1
- Adverse events observed: Superficial Punctate Keratopathy ([1]; one patient (studyid)): 0 (9×) and 1
- Reoperations required ([1]; one patient (studyid)): 1 (2×) and 0 (8×)
- IOP at last follow up [1, 4]: 16 (2×) and 9 (3×) and 22 and 14 (2×) and 12 and 15
- Visual acuity at last follow up [1, 4]: 20/300 and 20/200 and NLP and 20/70 and 20/150 and 20/500
- Detachments: Number of detachments due to PVR during study period [1, 5]: 0 (9×) and 0*
- Final IOP [1, 5]: 12 (3×) and 9 (2×) and 10 and 8 and 15 and 13 (2×)
- Visual Acuity, Post-op month 4 ([1]; one patient (studyid), intravitreal methotrexate 400 mcg/0.1 ml, up to 10 injections over 3 months): 20/200 (4×) and 20/160 and 20/252 and NLP and 20/65 and 20/320
- Elevated intraocular pressure by Goldmann Tonometry ([1]; one patient, single examination, attributed to excessive steroid use): 44 mm Hg
- Patients with superficial punctuate keratopathy (SPK) ([1]; single clinical exam, normal corneal surface one week later): one
- PVR after completion of the injection protocol ([1]; trauma patient #4, at 3½ months postoperatively): massive PVR two weeks after completion of the injection protocol
- Change in visual acuity for the group ([2]; 5 patients): no change in visual acuity
- Number of patients with any improved vision ([2]; of 5 patients): one
- Proliferation of human PVR cells in culture ([3]; 100 μM, 200 μM, or 400 μM): inhibited proliferation
- Growth of PVR cells versus control ([3]; 1 week): growth inhibition and lack of confluency
- Growth of PVR cells versus control ([3]; 2 weeks): inhibited growth and lack of confluency; also recorded: inhibition of cellular confluency continued
